The values below come from PubChem BioAssay AID1345 (Sanford-Burnham Center for Chemical Genomics, 2008).

SMILES strings stand for the structures. The source made the active and inactive calls.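 Rule for the calls: active = survival above 70% of the untreated level at 25 µM; inactive = the rest.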

This assay concerns CSM14.1 cells, VP16-induced death, ATP luminescence, 48 h. Briefly: rescue from etoposide-induced cell death, late-stage follow-up, selectivity assay for ER stress death inhibitor project, undifferentiated CSM14.1, ATP content (AID 1345). The conditions noted are these: at 25 µM; active compounds read high.

Turning to `COc1ccc(C2CC(=O)C3=C(C2)Nc2ccccc2NC3c2ccccc2C(F)(F)F)cc1OC` (stereo unspecified), the viability was 50% (inactive).

Consider `CCOc1cccc(C2Nc3ccccc3NC3=C2C(=O)CC(c2ccc(OC)cc2)C3)c1` (stereo unspecified), for which the viability was 50% (inactive).

As for `COc1ccc(C2CC(=O)C3=C(C2)Nc2ccccc2NC3c2cccc(Br)c2)cc1OC` (stereo unspecified), the viability was 56% (inactive).

Consider `CCCOc1ccc(C2Nc3ccccc3NC3=C2C(=O)CC(c2ccc(OC)c(OC)c2)C3)cc1` (stereo unspecified), for which the viability is 57% (inactive).

Consider `COc1ccc(C2CC(=O)C3=C(C2)Nc2ccccc2NC3c2cccc(C(F)(F)F)c2)cc1OC` (stereo unspecified), for which the viability was 49% (inactive).

For the compound `CC1(C)CC(=O)C2=C(C1)Nc1ccccc1NC2c1ccc(-c2ccccc2)cc1` (stereo unspecified), the viability was 53% (inactive).

On to `CCOc1cc(C2Nc3ccccc3NC3=C2C(=O)CC(c2ccc(OC)cc2)C3)cc(Cl)c1O` (stereo unspecified), for which the viability is 42% (inactive).

In the case of `CSc1ccc(C2Nc3ccccc3NC3=C2C(=O)CC(c2ccccc2)C3)cc1` (stereo unspecified), the viability is 52% (inactive).

As to `COc1ccc(C2CC(=O)C3=C(C2)Nc2ccccc2NC3c2cccc(Oc3ccccc3)c2)cc1OC` (stereo unspecified), the viability is 54% (inactive).

With `O=C1CC(c2ccccc2)CC2=C1C(c1c(F)cccc1Cl)Nc1ccccc1N2` (stereo unspecified), the viability was 50% (inactive).

Turning to `COc1ccc(C2CC(=O)C3=C(C2)Nc2ccccc2NC3c2cc(C)ccc2C)cc1` (stereo unspecified), the viability was 56% (inactive).
